Here are results for 1 compound from patent US9717222B2, “Taste independent brain nutrient sensor that mediates hunger” (New York University, priority 2014, dated 2017).

“Also recorded” adds a separate entry of the source.

For one experiment, the system named is hemolymph glycemia. As to the kind of experiment: Prandial rise of hemolymph glycemia after glucose feeding with or without phlorizin. Type of experiment: in vivo, Drosophila melanogaster. As to conditions: 18-hour starved flies fed 100 mM glucose with 10 mM phlorizin for 20 minutes (FIG. 1b). Here is the method:
Glycogen and glycemia were measured as previously described^6. For the prandial rise of hemolymph glycemia, flies were starved for 18 hours, and then fed with 100 mM glucose (with or without 10 mM phlorizin) for 15-20 minutes. Their hemolymph was immediately collected and measured.

For another experiment, the system named is Drosophila melanogaster. The experiment in a line: Two-choice feeding assay (food preference). Type of experiment: in vivo. Particulars: for food choice: 200 mM L-glucose+phlorizin versus 50 mM D-glucose+phlorizin: 18 hours food deprivation (FIG. 4); for food choice: glucose mixed with phlorizin versus plain agar: 100 mM glucose. Here is the method: Feeding assays were performed as previously described^6 using 50 flies per two-choice arena. Briefly, ˜50 4-8 days old male flies were starved in an empty vial with wet Kim wipe for 5 or 18 hours, and then given a choice between two sugars, or a sugar and plain agar for 2 hours. Food preference was determined as percent preference index (PI %) by scoring the abdomen color of each fly: % PI=(#eaten food1+0.5×#eaten both)−(#eaten food2+0.5×#eaten both)]/(total #flies eaten) All sugars, except for L-glucose (Carbosynth), were from Sigma. For FIG. 1c, 10 mM phlorizin (Sigma) was added to warm agar with or without sugar. For the experiments in the dark, individual plates were wrapped in aluminum foil and then placed in a dark drawer while tested flies were making a choice between the two substrates. For the neural silencing experiments, flies bearing UAS-Kir2.1, Ptubulin-GAL80^ts, and a GAL4 driver were treated as described^17. These flies were raised at 18° C., incubated at 29° C. for 40 hours, starved at 29° C. for next 18 hrs and then tested in the two-choice assay at room temperature. For a negative control, the flies were raised and starved at 18° C., and tested at room temperature. Because metabolism is slower at 18° C. than at 25-29° C., the flies at 18° C. needed to be starved for a longer period. Thus, we determined that the 18 hours of starvation at 25-29° C. is equivalent to the 50-60 hours of starvation at 18° C. Also, see FIG. 11.

Take `O=C(CCc1ccc(O)cc1)c1c(O)cc(O)cc1O[C@@H]1O[C@H](CO)[C@@H](O)[C@H](O)[C@H]1O` [Phlorizin]: in the experiment on hemolymph glycemia, the “prandial rise in hemolymph glycemia” value is “preventing a prandial rise in glycemia”. Also, the “food choice: 200 mM L-glucose+phlorizin versus 50 mM D-glucose+phlorizin” value in the experiment on Drosophila melanogaster (control flies) is “chose the more concentrated (sweeter) L-glucose; also recorded: chose the sweeter L-glucose”; in the experiment with Drosophila melanogaster (taste-blind (poxnΔM22-B5) and sugar-blind (Gr5a;Gr64a) mutants), “failed to discriminate between Lglucose+phlorizin and D-glucose+phlorizin; also recorded: showed equal preference for these two enantiomers”. Besides, the “food choice: glucose mixed with phlorizin versus plain agar” value with Drosophila melanogaster (control poxnΔM22-B5;SuperA158, 18 h food deprived, 10 mM phlorizin (FIG. 1c)) is given as “can distinguish glucose mixed with phlorizin from agar”; in the experiment with Drosophila melanogaster (taste-blind poxnΔM22-B5, 18 h food deprived, 10 mM phlorizin (FIG. 1c)), “failed to consume glucose mixed with phlorizin”. Moreover, the “food choice: fructose mixed with phlorizin versus plain agar” value in the experiment on Drosophila melanogaster (taste-blind poxnΔM22-B5, 18 h food deprived, 100 mM fructose, 10 mM phlorizin (FIG. 1c)) is given as “able to detect the nutritional value of fructose mixed with phlorizin”.
